# Values quoted from earlier work in patent publication US20040248850A1, “Compounds for the treatment of HIV infection” (Kemia, Inc., priority 2003, published 2004).
# System: Human Immunodeficiency Virus Type 1
# Conditions: in cell culture
substance,measurement,value
enfuvirtide,EC50,1 ng/mL
